Test results published in US20110027388A1 (priority 2009, published 2011).
Read-outs that look alike come from different tables or passages of the source.

What was measured:
HIV-1 Ba-L isolate = type: cell-based; conditions: read-out: IC50 (50% inhibition of virus replication)
HIV-1 NL4-3 isolate = type: cell-based; conditions: read-out: IC50 (50% inhibition of virus replication)
HIV-1 = type: cell-based
Zaire Ebola GFP virus [1] = type: cell-based
Zaire Ebola GFP virus [2] = type: cell-based; remark: listed apart in the source
Ebola virus = system: Ebola virus; design: species or system mice; conditions: mouse, in vivo, ip, 8 mg/kg
Zaire Ebola GFP virus [3] = conditions: read-out: IC50 for the fit
A549 cells [4] = system: A549 cells
A549 cells [5] = system: A549 cells; remark: listed apart in the source
[6] = mouse, in vivo
Sindbis virus = conditions: cited from earlier work

With N.N.N.N.N.N.[Cl-].[Cl-].[Cl-].[Co+3] [Cohex, Hexaamminecobalt(III) chloride] as the compound, how does the IC50 (HIV-1 Ba-L isolate) read?
The IC50 was 33.8 µM.

And the IC50 (HIV-1 NL4-3 isolate)?
The IC50 was 28.6 µM.

What about the IC50 (HIV-1) of the same compound?
Its IC50 is 31.2 µM.

What about the “suppression of viral expression (GFP)” value (Zaire Ebola GFP virus [1]) of the same compound?
Its value is ~100%.

What about the “suppression of viral expression (GFP)” value (Zaire Ebola GFP virus [2]) of the same compound?
The value was ~100%.

What about the “survival versus PBS treatment” value (Ebola virus) of the same compound?
Its value is “improved survival rates”.

What about the CC50 (PBMCs) of the same compound?
The CC50 was 833 µM.

What about the “concentrations at which cytotoxicity was observed” value (PBMCs) of the same compound?
The value was “above 100 μM”.

And the IC50 (Zaire Ebola GFP virus [3])?
The IC50 was 380 µM.

And the “concentration until which no toxic effect appears” value (A549 cells [4])?
The value was “about 0.1 mM”.

And the “concentration until which no toxic effect appears” value (HepG2 cells)?
The value was “about 0.1 mM”.

And the “viability (leveling off)” value (293T cells)?
The value was 70-80%.

And the “viability (leveling off)” value (VeroE6 cells)?
Its value is 70-80%.

And the “dead cells by PI staining” value (A549 cells [5])?
The value was “almost no change”.

And the tolerability [6]?
Its tolerability is “no adverse reactions reported”.

And the “cell viability and viral expression” value (Sindbis virus)?
The value was “effective in significantly enhancing cell viability and in depressing viral expression”.
